Source: patent US20250312417A1, “Methods for Mitigating Lung Injury in Conjunction with Exposure to Radiation and/or Radiation or Radiomimetic Treatments” (Janssen Pharmaceutica NV, priority 2022, published 2025)

How the values were obtained:
[1] = system: lungs of mice after whole thoracic radiation (WTI); test: Proinflammatory chemokine mRNA expression in lungs after whole thoracic radiation (WTI) 16 Gy; type: in vivo, C57BL/6 male mice; details: 2 weeks post-WTI 16 Gy; 0.3 mg/kg subcutaneously 1 day prior to WTI; p<0.05
Description: Lung data is presented as fold change of chemokine expression normalized to Hprt1 expression (n=5 for Naïve, n=5 for Vehicle (phosphate buffered saline) and TPOm pretreatment). Expression in the naive group is designated as 1 for comparison. Data are shown as means±SE. *P<0.05 vs. vehicle treated mice.
(§1) Methods: C57BL/6 male mice (9-12 weeks old) were administered with the TPOm RWJ-800088 (0.3 mg/kg) or PBS (vehicle) subcutaneously 1 day prior to whole thoracic radiation (WTI) at 16 Gy delivered by x-ray. Mice were sacrificed at 2 weeks and 7 months (n=5/time point/group) post-WTI to collect the lung tissues for various analysis. Groups of mice (n=10/group) exposed to 18 Gy WTI were also subjected to an 8-month survival study.

[2] = system: lungs of mice after whole thoracic radiation (WTI); test: H&E staining of lung sections for cellularity and immune infiltration post-WTI; type: in vivo, C57BL/6 male mice; details: 2 weeks post-WTI 16 Gy; 0.3 mg/kg subcutaneously 1 day prior to WTI
Description: (§2) FIGS. 2A-2B show the effect of TPOm-pretreatment (1 day before irradiation at 0.3 mg/kg body weight by subcutaneous injection) on immune cell infiltration and permeability in the lungs of mice at 14 days post-WTI. […] 200× total magnification.
as §1

[3] = system: lungs of mice after whole thoracic radiation (WTI); test: Protein in bronchoalveolar lavage by bicinchoninic acid assay (BCA) post-WTI; type: in vivo, C57BL/6 male mice; details: 2 weeks post-WTI 16 Gy; 0.3 mg/kg subcutaneously 1 day prior to WTI; p<0.05
Description: as §2, §1

[4] = system: lungs of mice after whole thoracic radiation (WTI); test: Collagen deposition in lungs by Trichrome Blue staining post-WTI; type: in vivo, C57BL/6 male mice; details: 7 months post-WTI 16 Gy; 0.3 mg/kg subcutaneously 1 day prior to WTI; p<0.05
Description: FIGS. 3A-3B show the effect of TPOm-pretreatment (1 day before irradiation at 0.3 mg/kg body weight by subcutaneous injection) on collagen deposition in lungs of mice at 7 months post-WTI. […] 200× total magnification.
as §1

[5] = system: lungs of mice after whole thoracic radiation (WTI); test: Pulmonary density by microCT post-WTI; type: in vivo, C57BL/6 male mice; details: 7 months post-WTI 16 Gy; 0.3 mg/kg subcutaneously 1 day prior to WTI; p<0.05
Description: FIGS. 5A-5C show the effect of TPOm-pretreatment (1 day before irradiation at 0.3 mg/kg body weight by subcutaneous injection) on pulmonary density of mice at 7 months post-WTI. Pulmonary density imaged by microCT and measured by microCT analysis software. […] (n=3 for Naïve, n=5 for vehicle and n=4 for TPOm pretreatment). *P <0.05 vs. vehicle treated mice.
as §1

[6] = system: lungs of mice after whole thoracic radiation (WTI); test: Senescence marker mRNA expression in lungs (qPCR) post-WTI; type: in vivo, C57BL/6 male mice; details: 7 months post-WTI 16 Gy; 0.3 mg/kg subcutaneously 1 day prior to WTI; p<0.05
Description: FIGS. 4A-4C show the effect of TPOm-pretreatment (1 day before irradiation at 0.3 mg/kg body weight by subcutaneous injection) on senescence gene mRNA and protein expression in lungs of mice at 7 months post-WTI. mRNA and protein levels assessed by qPCR and western blot, respectively. […] Data are shown as means±SE. *P <0.05 vs. vehicle treated mice. […] Expression in the naive group is designated as 1 for comparison.
as §1

[7] = system: mice exposed to 18 Gy WTI; test: 8-month survival study after 18 Gy WTI; type: in vivo, C57BL/6 male mice
Description: Mice were given a vehicle or TPOm injection (1 mg/kg), 1 day before irradiation (1×) or 1 day before irradiation and 7 days after radiation (2×) (n=10 for irradiated groups, n=5 for naïve). *P<0.05 vs. vehicle treated mice.
as §1

[8] = system: lungs of mice after whole thoracic radiation (WTI); test: KC protein in whole lung lysate by ELISA post-WTI; type: in vivo; details: post-WTI 16 Gy; 0.3 mg/kg subcutaneously 1 day before irradiation; FIG. 7A
Description: (§3) FIGS. 7A-C show TPOm-pretreatment (1 day before irradiation at 0.3 mg/kg body weight by subcutaneous injection) on neutrophil infiltration of mice measured at 7 months post-WTI. […] 400× total magnification. […] Data are shown as means±SE. *P<0.05, ***P<0.0001.
as §1
Methods: Mice were treated as described in Example 1. Whole lung lysate was prepared from left lung tissue at the time of harvest. KC ELISA kit (R&D Systems, #DY453) was used according to manufacturer's instructions. For each sample, 2 replicates were measured for KC protein.

[9] = system: lungs of mice after whole thoracic radiation (WTI); test: Myeloperoxidase (MPO) staining of lung sections for neutrophil infiltration post-WTI; type: in vivo; details: post-WTI 16 Gy; 0.3 mg/kg subcutaneously 1 day before irradiation; FIG. 7C
Description: as §3, §1
At the time of harvest, the right lung was fixed with 10% formalin, then embedded and sectioned at […]. Anti-myeloperoxidase (MPO) antibody was obtained from Abcam (Cambridge, MA, USA). Immunoreactivity was visualized by ImmPACT histochemistry (Vector Labs, Burlingame, CA, USA) with hematoxylin counter staining. For quantitation of MPO+ cells in lung tissue, images were analyzed with ImageJ software (National Institutes of Health); stained cells were counted using the “analyze particles” module to assess positive staining. Data were quantified from 3 fields of 1 section per animal, and 5 animals per group.

methoxypolyethyleneglycol20000-propionyl-L-Isoleucyl-L-Glutamyl-Glycyl-L-Prolyl-L-Threonyl-L-Leucyl-L-Arginyl-L-Glutaminyl-L-2-Naphthylalanyl-L-Leucyl-L-Alanyl-L-Alanyl-L-Arginyl-Sarcosyl-Ne-(methoxypolyethyleneglycol20000-propionyl-L-Isoleucyl-L-Glutamyl-Glycyl-L-Prolyl-L-Threonyl-L-Leucyl-L-Arginyl-L-Glutaminyl-L-2-Naphthylalanyl-L-Leucyl-L-Alanyl-L-Alanyl-L-Arginyl-Sarcosyl-)-Lysinamide [TPOm]
mRNA expression of proinflammatory chemokine KC in lungs, lower than vehicle [1]: 37% | mRNA expression of proinflammatory chemokine MCP1 in lungs, lower than vehicle [1]: 39% | cellularity by H&E staining [2]: higher cellularity in vehicle compared to TPOm treated mice | protein leaked to bronchoalveolar lavage fluid, less than vehicle [3]: 28% | collagen deposition, lower than vehicle (Trichrome Blue staining) [4]: 31% | density in lungs by microCT, less than vehicle [5]: 21% | mRNA levels of senescence marker p21, lower than vehicle [6]: 52% | survival ([7]; vehicle 0%, p<0.01): 40% | mortality ([7]; vs vehicle): significantly delayed in mortality | protein expression of KC in the lung (ELISA) [8]: significantly reduced in the TPOm (RWJ-800088) group to a level similar to naïve | alveolar neutrophil accumulation (MPO staining) [9]: alveolar neutrophil accumulation in significantly greater numbers than mice treated with TPOm
